The record followed here is patent publication US20070270421A1, “Novel pyridine Derivative and Pyrimidine Derivative (1)” (priority 2004, published 2007).

In the test the target is T1, HGFR (His6-HGFR cytoplasmic domain) (Homo sapiens, UniProt P08581).
T1 construct: made in house; host or cells: Spodoptera frugiperda Sf9 insect cells (baculovirus, pFastBac-HT)
As to the kind of experiment: Inhibitory activity against HGFR tyrosine kinase activity (HTRF). The test is classed as biochemical. The following applies: biotin-poly(GT), ATP, 30° C. 10 min, read-out: IC50 (concentration necessary to inhibit HGFR kinase activity by 50%). In a few lines: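 Baculovirus/Sf9-expressed N-terminal His6-tagged HGFR cytoplasmic domain (from Lys974), Ni-NTA purified, phosphorylated biotin-poly(GT) in Hepes pH 7.4 with MgCl2/MnCl2. ATP added as 4 μM solution; 10 min at 30° C., stopped with EDTA. Phosphotyrosine product detected by HTRF.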
Background: Time-resolved FRET reads energy transfer from a long-lived donor to a nearby acceptor.

T1 sequence (P08581 956-1390 limits assumed): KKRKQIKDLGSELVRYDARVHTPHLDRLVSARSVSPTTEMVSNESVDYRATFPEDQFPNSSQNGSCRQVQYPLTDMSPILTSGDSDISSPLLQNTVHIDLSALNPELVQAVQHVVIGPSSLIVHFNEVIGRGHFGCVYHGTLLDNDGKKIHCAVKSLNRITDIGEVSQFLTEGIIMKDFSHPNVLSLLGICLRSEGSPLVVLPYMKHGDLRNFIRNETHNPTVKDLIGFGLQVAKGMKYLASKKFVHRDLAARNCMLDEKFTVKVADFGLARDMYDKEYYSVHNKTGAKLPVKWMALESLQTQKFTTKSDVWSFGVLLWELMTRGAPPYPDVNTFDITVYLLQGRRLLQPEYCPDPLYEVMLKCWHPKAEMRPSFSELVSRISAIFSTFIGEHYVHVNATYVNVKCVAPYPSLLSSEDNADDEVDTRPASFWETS

With `O=C(Cc1ccc(F)cc1)NC(=S)Nc1ccc(Oc2cc(NC(=O)N3CCC(CN4CCCC4)CC3)ncn2)c(F)c1` [Example 349, 4-(Pyrrolidin-1-ylmethyl)piperidine-1-carboxylic acid [6-(2-fluoro-4-{3-[2-(4-fluorophenyl)acetyl]thioureido}phenoxy)pyrimidin-4-yl]amide], the IC50 amounted to 0.087 µM.
The value for `O=C(CC(=O)Nc1ccc(Oc2ccnc(NC(=O)N3CCC3)c2)cc1Cl)Nc1ccc(F)cc1` [Example 64, N-(2-Chloro-4-{2-[(azetidine-1-carbonyl)amino]pyridin-4-yloxy}phenyl)-N′-(4-fluorophenyl)malonamide] was 0.059 µM.
For `CCC(=O)Nc1cc(Oc2ccc(NC(=O)CC(=O)Nc3ccc(F)cc3)c(F)c2)ccn1` [Example 75, N-(4-Fluorophenyl)-N′-[4-(2-propionylaminopyridin-4-yloxy)-2-fluorophenyl]malonamide], the IC50 was determined as 0.054 µM.
In the case of `COc1ccccc1NC(=O)CC(=O)Nc1ccc(Oc2ccnc(NC(=O)N3CCCC3)c2)c(F)c1` [Example 60, N-(2-methoxyphenyl)-N′-(3-fluoro-4-{2-[(pyrrolidine-1-carbonyl)amino]pyridin-4-yloxy}phenyl)malonamide], the IC50 was 0.049 µM.
`CN(C)CCCN1CCC(N(C)C(=O)Nc2cc(Oc3ccc(NC(=S)NC(=O)Cc4ccc(F)cc4)cc3F)ccn2)CC1` [Example 225, 1-[1-(3-Dimethylaminopropyl)piperidin-4-yl]-3-[4-(2-fluoro-4-{3-[2-(4-fluorophenyl)acetyl]thioureido}phenoxy)pyridin-2-yl]-1-methylurea]: the IC50 stood at 0.079 µM.
Turning to `O=C(Cc1ccc(F)cc1)NC(=O)Nc1ccc(Oc2ccnc(NC(=O)N3CCC(N4CCCC4)CC3)c2)c(F)c1` [Example 174, 4-(Pyrrolidin-1-yl)piperidine-1-carboxylic acid [4-(2-fluoro-4-{3-[2-(4-fluorophenyl)acetyl]ureido}phenoxy)pyridin-2-yl]amide], the IC50 is 0.074 µM.
The value for `CN1CC[C@H](N(C)C(=O)Nc2cc(Oc3ccc(NC(=S)NC(=O)Cc4ccc(F)cc4)cc3F)ncn2)C1` [Example 201, 3-[6-(2-Fluoro-4-{3-[2-(4-fluorophenyl)acetyl]thioureido}phenoxy)pyrimidin-4-yl]-1-methyl-1-[(3S)-1-methylpyrrolidin-3-yl]urea] was 0.05 µM; that for `CN(C)C1CN(C2CCN(C(=O)Nc3cc(Oc4ccc(NC(=S)NC(=O)Cc5ccccc5)cc4F)ccn3)CC2)C1` [Example 373, 4-(3-Dimethylaminoazetidin-1-yl)piperidine-1-carboxylic acid {4-[2-fluoro-4-(3-phenylacetylthioureido)phenoxy]pyridin-2-yl}amide] was 0.077 µM.
Turning to `CN(C)CCN1CCC(N(C)C(=O)Nc2cc(Oc3ccc(NC(=S)NC(=O)Cc4ccc(F)cc4)cc3F)ccn2)CC1` [Example 224, 1-[1-(2-Dimethylaminoethyl)piperidin-4-yl]-3-[4-(2-fluoro-4-{3-[2-(4-fluorophenyl)acetyl]thioureido}phenoxy)pyridin-2-yl]-1-methylurea], the IC50 was 0.088 µM.
Regarding `CN(C)CCN1CCCN(C(=O)Nc2cc(Oc3ccc(NC(=S)NC(=O)Cc4ccccc4)cc3F)ccn2)CC1` [Example 334, 4-(2-Dimethylaminoethyl)-[1,4]diazepane-1-carboxylic acid {4-[2-fluoro-4-(3-phenylacetylthioureido)phenoxy]pyridin-2-yl}amide], the IC50 stood at 0.12 µM.
The value for `CN1CC(N2CCN(C(=O)Nc3cc(Oc4ccc(NC(=O)NC(=O)Cc5ccc(F)cc5)cc4)ccn3)CC2)C1` [Example 376, 4-(1-Methylazetidin-3-yl)piperazine-1-carboxylic acid [4-(4-{3-[2-(4-fluorophenyl)acetyl]ureido}phenoxy)pyridin-2-yl]amide] was 0.065 µM; that for `CN(C)CC1CCN(C(=O)Nc2cc(Oc3ccc(NC(=S)NC(=O)Cc4ccc(F)cc4)cc3F)ncn2)CC1` [Example 180, 4-{[4-(Dimethylaminomethyl)piperidin-1-yl]carbonylamino}-6-(2-fluoro-4-{3-[2-(4-fluorophenyl)acetyl]thioureido}phenoxy)pyrimidine] was 0.038 µM.
Under `CCN1CCC(N(C)C(=O)Nc2cc(Oc3ccc(NC(=S)NC(=O)Cc4ccc(F)cc4)cc3F)ncn2)CC1` [Example 285, 1-(1-Ethylpiperidin-4-yl)-3-[6-(2-fluoro-4-{3-[2-(4-fluorophenyl)acetyl]thioureido}phenoxy)pyrimidin-4-yl]-1-methylurea] stands 0.051 µM; under `O=C(CC(=O)Nc1ccc(Oc2ccnc(NC(=O)N3CCCC3)c2)c(Cl)c1)Nc1ccc(F)cc1` [Example 67, N-(3-Chloro-4-{2-[(pyrrolidine-1-carbonyl)amino]pyridin-4-yloxy}phenyl)-N′-(4-fluorophenyl)malonamide], 0.067 µM.
For `CCN(CC)CCCN(C)C(=O)Nc1cc(Oc2ccc(NC(=O)CC(=O)Nc3ccc(F)cc3)c(F)c2)ccn1` [Example 83], the IC50 was 0.082 µM.
`CN1CC(N2CCN(C(=O)Nc3cc(Oc4ccc(NC(=O)NC(=O)Cc5ccccc5)cc4F)ccn3)CC2)C1` [Example 377, 4-(1-Methylazetidin-3-yl)piperazine-1-carboxylic acid {4-[2-fluoro-4-(3-phenylacetylureido)phenoxy]pyridin-2-yl}amide]: the IC50 was found to be 0.068 µM.
As for `CC(=O)Nc1cc(Oc2ccc(NC(=O)CC(=O)Nc3ccc(F)cc3)c(F)c2)ccn1` [Example 74, N-(4-Fluorophenyl)-N′-[4-(2-acetylaminopyridin-4-yloxy)-2-fluorophenyl]malonamide], the IC50 came out at 0.033 µM.
For the compound `O=C(Cc1ccc(F)cc1)NC(=S)Nc1ccc(Oc2cc(NC(=O)N3CCCCC3)ncn2)c(F)c1` [Example 6, Piperidine-1-carboxylic acid [6-(2-fluoro-4-{3-[2-(4-fluorophenyl)acetyl]thioureido}phenoxy)pyrimidin-4-yl]amide], the IC50 worked out at 0.06 µM.
For the compound `CN1CCN(C2CCN(C(=O)Nc3cc(Oc4ccc(NC(=O)NC(=O)Cc5ccccc5)cc4F)ccn3)CC2)CC1` [Example 340, 4-{2-Fluoro-4-[3-(2-phenylacetyl)ureido]phenoxy}-2-{[4-(1-methylpiperazin-4-yl)piperidin-1-yl]carbonylamino}pyridine], the IC50 came out at 0.077 µM.
For the compound `O=C(Cc1ccc(F)cc1)NC(=S)Nc1ccc(Oc2cc(NC(=O)N3CCC(N4CCC4)CC3)ncn2)c(F)c1` [Example 172, 4-(Azetidin-1-yl)piperidine-1-carboxylic acid [6-(2-fluoro-4-{3-[2-(4-fluorophenyl)acetyl]thioureido}phenoxy)pyrimidin-4-yl]amide], the IC50 was 0.064 µM.
For `CN(C)[C@H]1CCN(C(=O)Nc2cc(Oc3ccc(NC(=S)NC(=O)Cc4ccc(F)cc4)cc3F)ncn2)C1` [Example 254, 4-{[(3S)-3-Dimethylaminopyrrolidin-1-yl]carbonylamino}-6-(2-fluoro-4-{3-[2-(4-fluorophenyl)acetyl]thioureido}phenoxy)pyrimidine], the IC50 is 0.083 µM.
Regarding `CN1CCC(N2CCN(C(=O)Nc3cc(Oc4ccc(NC(=O)NC(=O)Cc5ccc(F)cc5)cc4)ccn3)CC2)CC1` [Example 346, 4-(4-{3-[2-(4-Fluorophenyl)acetyl]ureido}phenoxy)-2-{[4-(1-methylpiperidin-4-yl)piperazin-1-yl]carbonylamino}pyridine], the IC50 was determined as 0.1 µM.
